Assay results reported in patent US20060067947A1, “Immunotherapeutic for cancer” (Orient Cancer Therapy Co., Ltd., priority 2002, published 2006).

Tests used:
IFNγ = IFNγ measurement by EIA; format: in vivo, human; settings: Case 2; per date of visit
Protocol: (§1) After washing, 10% fetal bovine serum (FBS)-added RPMI-1640 culture medium is added for preparation to provide a cell count of 1×10^6. Phytohemagglutinin (manufactured by Difco) is added to 200 μl of the cell suspension thus obtained to provide a concentration of 20 μg/ml, and then the mixture is cultured using a 96 well microplate under 5% CO2 at 37° C. for 24 hours.

[1] = system: Th1/Th2 helper T-cells (CD4); experiment: Th1/Th2 cell ratio by flow cytometry; format: in vivo, human; settings: Case 2; per date of visit
Protocol: The Th1/Th2 cell ratio was determined according to an ordinary method by helper T(Th)-cell line three-color analytical assay using flow cytometry.
First, blood collected from cancer patients was treated for 4 hours at 37° C. with phorbol 12-myristate 13 acetate and ionomycin to stimulate cells in the blood to produce cytokines. Next, Breferdin A was added to stop the production reaction, cell surface marker CD4 was stained using an anti-CD4 antibody CD4-PC5 (Beckman Coulter), the cells were fixed and then subjected to hemolysis using FACS Lysing Solution (Nippon Becton Dickinson Co., Ltd.). Thereafter, cells were permeabilized with FACS Permeabilizing Solution (Nippon Becton Dickinson Co., Ltd.), and intracellular cytokines were stained using anti-IFNγ antibody/anti-IL-4 antibody (Fastimmune IFNγ FITC/IL-4 PE, from Nippon Becton Dickinson Co., Ltd.), and then measured and analysed with a flow cytometer (FACS Calibur, Becton Dickinson).

pulmonary adenocarcinoma [2] = experiment: Efficacy judgment on patients (CR, PR, LNC, SNC, PD)
Protocol: (§3) Further, similarly to Example 1, an IL-12 inducer, shark cartilage (Seishin Enterprise Co., Ltd.), and a saccharide (NK, NKT activator) having an α1,3 structure were administered to the patients in each case according to the respective recommended prescriptions.

[3] = system: Th1 cytokines (TNFα, IFNγ, IL-12)
Protocol: In this case, a measurement kit purchased from R&D Systems was used. In practice, to each well of a 96-well microplate were added 50 μl of a measuring diluent, Assay Diluent RD1F, and 200 μl of a standard solution or samples prepared by the method for preparing the aforementioned samples for cytokine measurement, after which the samples were allowed to stand still at room temperature for 2 hours for reaction. Thereafter, 200 μl of horseradish peroxidase-labeled anti-IL12 antibody was added to the solution of each well, and the wells were then allowed to stand still at room temperature for 2 hours. After removing the reaction solution from each well and washing three times, 200 μl of chromophore solution was added to each well, the wells were allowed to stand still at room temperature for 20 minutes, and 50 μl of enzyme reaction stopping solution was then added to each well. The absorbance of each sample was measured at 450 nm with Emax (from Wako Pure Chemical Industries, Ltd.) employing 550 nm as a control. The amount of IL-12 is represented in pg/ml.
Measurement of IFNγ was conducted by enzyme immunoassay (EIA) using the IFNγ EASIA kit available from BioSource Europe SA. […]

CD3+CD161+ NKT cell = experiment: NKT cell measurement by flow cytometry; format: in vivo, human; settings: Case 2; per date of visit
Protocol: Measurement of NKR-P1-bearing NKT cell can be conducted by measuring cell surface antigens (CD3 and CD161) existing specifically on the NKT cell surface. More specifically, peripheral blood lymphocytes are examined with respect to cells with positive CD3 and positive CD161 (CD3+CD161+). That is, CD3 and CD161, NKT cell surface antigens, are measured by the two-color assay through flow cytometry using monoclonal antibody. Here, the term “NKT cell activation” refers to as the CD3+CD161+ NKT cell proportion in lymphocyte being 10% or more and preferably 16% or more. The term “NKT cell activating capability” denotes a capability of increasing the NKT cell proportion to 10% or more and preferably 16% or more, or a capability of further augmenting the NKT cell proportion from a proportion before administration of a certain substance.
(§2) In the examples, using blood obtained from cancer patients, blood cells were discriminated as positive or negative of the cell surface antigens CD3, CD161 and CD8, with each cell proportion measured according to a conventional method by two-color assay using flow cytometry. At this time, for respective monoclonal antibodies to CD3, CD161 and CD8, those manufactured by Coulter or Becton Dickinson were used.

[4] = system: non-small-cell lung cancer, prostatic cancer and the like; settings: cited from earlier work
IL-12 = IL-12 measurement by ELISA; format: in vivo, human; settings: Case 2; per date of visit
Protocol: Phytohemagglutinin (manufactured by Difco) is added to 200 μl of the cell suspension thus obtained to provide a concentration of 20 μg/ml, and then the mixture is cultured using a 96 well microplate under 5% CO2 at 37° C. for 24 hours.

pulmonary adenocarcinoma [5] = settings: IRESSA alone, reported up to now; cited from earlier work
TNFα = TNFα measurement by ELISA; format: in vivo, human; settings: Case 2; per date of visit
Protocol: as §1, with “was” for “is”, “1×10^6/ml.” for “1×10^6.”, “Phytohemagglutinin (30 μg/ml)” for “Phytohemagglutinin”, “obtained,” for “obtained to provide a concentration of 20 μg/ml,”

prostatic cancer = experiment: Efficacy judgment on patients; format: in vivo, human; settings: Case 2; IRESSA 250 mg/day combined with NITC, after one month
Protocol: as §3

CD8+ perforin+ cells = experiment: CD8+ perforin production cell measurement; format: in vivo, human; settings: Case 2; per date of visit
Source text: Further, the term “CD8+” denotes examination of cells with positive CD8. This method is useful for CTL activation measurement.
as §2
Two among CD3, CD161 and CD8, cell surface antigens, and perforin are measured with respect to peripheral blood lymphocyte according to a conventional method by three-color assay using flow cytometry. More specifically, a fixative is added to sampled blood, thus fixing cells. After addition of membrane permeating solution, anti-perforin antibody (manufactured by Pharmingen) is added for reaction. Further, PRE-Cy5 labeled second antibody (manufactured by DAKO) is added for reaction, followed by addition of anti-CD3-PE (Coulter 6604627) antibody and anti-CD161-FITC (B-D) antibody for reaction, after which measurement is conducted by flow cytometry. In the drawings and tables, the abbreviation “PER” is used.

VEGF = experiment: Serum VEGF by ELISA; format: in vivo, human; settings: per date of visit
Protocol: (Measurement of vascular endothelial growth factor/VEGF, basic fibroblast growth factor/bFGF and neovascularization inhibitor endostatin/endostatin)
Serum concentrations were measured using commercially available kits for each enzyme linked immunosorbent assay (ELISA) ([…] Human VEGF, […] Human bFGF, […] Human Endostatin, from Cytimmune Sciences Inc.).

tumor markers = experiment: Tumor markers in clinical testing; format: in vivo, human
Source text: A commercially available product was used for each of the markers used in the clinical testing, and measurement values were shown in accordance with the respective recommended methods. All abbreviations shown are in accordance with common methods of presentation.

IL-10 = IL-10 measurement; format: in vivo, human; settings: Case 2; per date of visit
Protocol: as §1

CD3−CD161+ NK cell = experiment: NK cell measurement by flow cytometry; format: in vivo, human; settings: Case 2; per date of visit
Source text: Likewise, the term “(CD3−CD161+)” refers to examination of cells with negative CD3 and positive CD161. This method is useful for NK cell measurement.
as §2

[6] = Case 1, IRESSA added to NITC, after one and a half months
[7] = Case 3, IRESSA with NITC, approximately 1 month
[8] = IRESSA alone, reported clinical results

COc1cc2ncnc(Nc3ccc(F)c(Cl)c3)c2cc1OCCCN1CCOCC1 [IRESSA]
IFN γ (10 IU/ml) (IFNγ): 46.2 IU/ml | Ratio of TH1/TH2 (CD4) (7 or more) [1]: 2.7 | carcinomatous pleural fluid and primary lung cancer (pulmonary adenocarcinoma [2]; Case 1, IRESSA 250 mg per day added to NITC, after one and a half months): completely disappeared | bone metastasis to right hip joint, cervical vertebrae and thoracic vertebrae (pulmonary adenocarcinoma [2]; [6]): cured | miliary lung metastasis (pulmonary adenocarcinoma [2]; [7]): almost disappeared | multiple costal metastasis (pulmonary adenocarcinoma [2]; [7]): disappeared | primary focus in the right lung (pulmonary adenocarcinoma [2]; [7]): reduced by half | TNFα, IFNγ, and IL-12 [3, 6]: activated at levels exceeding standard values | induced production of TNFα, IFNγ, and IL-12 [3, 7]: increased | CD3+ CD161+ (16%) (CD3+CD161+ NKT cell): 17.0% | period to reach complete remission ([4]; IRESSA alone, extremely rare cases): ≥ 4 months | CR (complete remission) found [4, 8]: almost no CR | PR (partial remission) cases [4, 8]: 10 to 20% | cessation of proliferation (NC) ([4]; treatment by IRESSA): about 50% | reduction (PR) in cancer cells ([4]; treatment by IRESSA): about 20% | IL-12 (7.8 pg/ml) (IL-12): 72.4 pg/mL | proportion of effective cases (pulmonary adenocarcinoma [5]): around 20% | TNF α (1000 pg/ml) (TNFα): 3420 pg/mL | multiple bone metastasis (prostatic cancer): complete remission | CD8+ PER+ (14%) (CD8+ perforin+ cells): 7.2% | VEGF (VEGF; Case 1): 320 pg/mL | VEGF (VEGF; Case 2): 342 pg/mL | various tumor markers (tumor markers; [6]): normalized | CA15-3 (30 U/ml) (tumor markers; Case 1, per date of visit): 26 U/ml | CA19-9 (37 U/ml) (tumor markers; Case 1, per date of visit): 32 U/ml | CEA (5.0 ng/ml) (tumor markers; Case 1, per date of visit): 4.5 ng/mL | NCC-ST-439 (7.0 U/ml) (tumor markers; Case 1, per date of visit): 6.7 U/ml | SPAN-1 (30 U/ml) (tumor markers; Case 1, per date of visit): 16 U/ml | Sielyl LEX-1 (38 U/ml) (tumor markers; Case 1, per date of visit): 36 U/ml | PSA value (tumor markers; Case 2, IRESSA combined with NITC, after one month, normalized): 4.0 ng/mL | 1CTP (4.5 ng/ml) (tumor markers; Case 2, per date of visit): 2.5 ng/mL | CA19-9 (37 U/ml) (tumor markers; Case 2, per date of visit): 27 U/ml | Gamma-seminoprotein (4.0 ng/ml) (tumor markers; Case 2, per date of visit): 4.0 ng/mL | PA (RIA) (4.0 ng/ml) (tumor markers; Case 2, per date of visit): 4.0 ng/mL | PAP (EIA) (3.0 ng/ml) (tumor markers; Case 2, per date of visit): 1.4 ng/mL | tumor marker CEA (tumor markers; Case 3, IRESSA with NITC, approximately 1 month, from 256 ng/ml prior to the treatment): 172 ng/mL | SLX-1 (tumor markers; Case 3, IRESSA with NITC, approximately 1 month, from 480 U/ml prior to the treatment): 140 U/ml | IL-10 (IL-10): 154 pg/mL | CD3− CD161+ (11%) (CD3−CD161+ NK cell): 12.3%
